Data set [1] deals with T1, Human BCL6 protein (N-terminal HiBiT tagged BCL6 in HT1080 cells) (Homo sapiens, UniProt P41182+Q96SW2).
T1 construct: Human BCL6 protein coding open reading frame; expressed in transfected cells; host or cells: HT1080 (ATCC CCL-121), stably transduced with lentivirus pLV-UBC-N-HiBiT-BCL6-PGK-puro
The data set can be described thus: HiBiT based BCL6 degradation assay. It is filed as cell-based. To be noted: HT1080 cells expressing N-terminal HiBiT tagged BCL6; 5 hours incubation; BCL6 degradation normalized with DMSO control. The method, boiled down:
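HT1080 cells stably expressing N-terminal HiBiT-BCL6 were treated with compound dilution series for 5 h at 37° C. in RPMI 1640 with 10% FBS. HiBiT lytic luminescence read after 15 min; degradation normalized to DMSO, with curves fitted by four-parameter logistic model.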

Data set [2] is described as follows: Pharmacokinetic assessment in male CD-1 mice (IV and PO). It counts as in vivo. To be noted: mouse, plasma; for clearance: clearance (IV), commonly 1 mg/kg; for clearance / AUC(0-inf): non-compartmental model; for bioavailability: oral bioavailability, PO commonly 10 mg/kg vs IV commonly 1 mg/kg; for Cmax / AUC(0-inf): route not given. The procedure:
Pharmacokinetics (PK) studies were conducted on male CD-1 mice by two delivery routes: intravenous (IV) injection and oral gavage (PO). Mice for the IV group (n=3) were allowed free access to food and water and mice for the PO group (n=3) were fasted 6-8 hours prior to dosing. The test articles were formulated in solution for the IV route (commonly 5% DMSO/10% Solutol HS15/85% water (pH 5)) and solution or suspension for the PO route (commonly 100% PEG400). On the day of the experiment, test article was administered via vein injection (commonly 1 mg/kg) for IV route or via oral gavage (commonly 10 mg/kg) for PO route, respectively. Blood samples were collected via the saphenous vein using a needle (commonly 20G) at 0.83 to 24 hours post dose. Approximately 30 μL of blood per timepoint was collected into pre-chilled tubes using K2EDTA as the anti-coagulant. After collection of blood samples at each time point, the blood samples were stored on ice. Blood samples were centrifuged within 0.5 hour of collection to separate plasma. Centrifugation was conducted at 2500×g for 15 minutes at 4° C. Plasma samples were immediately acidified (commonly 0.1M sodium citrate (pH=5) buffer). The samples were then submitted to LC-MS/MS for sample analysis. Pharmacokinetics parameters, including clearance (IV), area under the curve (AUC), and oral bioavailability (% F) were calculated by non-compartmental model.

In the case of `CNC(=O)COc1cc2cc(Nc3nc(N4CCN(CC5CCN(c6ccc7c(C8CCC(=O)NC8=O)nn(C)c7c6)CC5)CC4)ncc3Cl)ccc2n(C)c1=O` (stereo not shown) [Compound 102, 2-((6-((5-chloro-2-(4-((1-(3-(2,6-dioxopiperidin-3-yl)-1-methyl-1H-indazol-6-yl)piperidin-4-yl)methyl)piperazin-1-yl)pyrimidin-4-yl)amino)-1-methyl-2-oxo-1,2-dihydroquinolin-3-yl)oxy)-N-methylacetamide], the “Ymin (5 hr)” value in data set [1] is on record as “+++ (25% < Ymin ≤ 50%)”. In data set [2], the clearance is 10.8 mL/min/kg, the bioavailability is 67.5%, the maximum concentration (Cmax) amounted to 2550 nM and the area under the curve AUC(0-inf) was 13.5 µM·h.
The matching figures for `CNC(=O)COc1cc2cc(Nc3nc(N4CCN(CC5CCN(c6cccc7c(C8CCC(=O)NC8=O)nn(C)c67)CC5)CC4)ncc3Cl)ccc2n(C)c1=O` (stereo not shown) [Compound 101, 2-((6-((5-chloro-2-(4-((1-(3-(2,6-dioxopiperidin-3-yl)-1-methyl-1H-indazol-7-yl)piperidin-4-yl)methyl)piperazin-1-yl)pyrimidin-4-yl)amino)-1-methyl-2-oxo-1,2-dihydroquinolin-3-yl)oxy)-N-methylacetamide]: “++++ (Ymin ≤ 25%)”, 12.8 mL/min/kg, 76.4%, 3400 nM and 12.6 µM·h.
In the case of `CNC(=O)COc1cc2cc(Nc3nc(N4CCC(CN5CCN(C(=O)c6ccc7c(C8CCC(=O)NC8=O)nn(C)c7c6)CC5)CC4)ncc3Cl)ccc2n(C)c1=O` (stereo not shown) [Compound 322, 2-((6-((5-chloro-2-(4-((4-(3-(2,6-dioxopiperidin-3-yl)-1-methyl-1H-indazole-6-carbonyl)piperazin-1-yl)methyl)piperidin-1-yl)pyrimidin-4-yl)amino)-1-methyl-2-oxo-1,2-dihydroquinolin-3-yl)oxy)-N-methylacetamide], the “Ymin (5 hr)” value in data set [1] is recorded as “+++ (25% < Ymin ≤ 50%)”.
Same read-out and setting: the same measure for `CNC(=O)COc1cc2cc(Nc3nc(N4CCC(CN5CCN(C(=O)c6cccc(C7CCC(=O)NC7=O)c6)CC5)CC4)ncc3Cl)ccc2n(C)c1=O` (stereo not shown) [Compound 314, 2-((6-((5-chloro-2-(4-((4-(3-(2,6-dioxopiperidin-3-yl)benzoyl)piperazin-1-yl)methyl)piperidin-1-yl)pyrimidin-4-yl)amino)-1-methyl-2-oxo-1,2-dihydroquinolin-3-yl)oxy)-N-methylacetamide]: “++ (50% < Ymin ≤ 70%)”.
With `CNC(=O)COc1cc2cc(Nc3nc(N4C5CCC4CN(CC4CCN(c6cccc7c(C8CCC(=O)NC8=O)nn(C)c67)CC4)C5)ncc3Cl)ccc2n(C)c1=O` (stereo not shown) [Compound 325, 2-((6-((5-chloro-2-(3-((1-(3-(2,6-dioxopiperidin-3-yl)-1-methyl-1H-indazol-7-yl)piperidin-4-yl)methyl)-3,8-diazabicyclo[3.2.1]octan-8-yl)pyrimidin-4-yl)amino)-1-methyl-2-oxo-1,2-dihydroquinolin-3-yl)oxy)-N-methylacetamide], the “Ymin (5 hr)” value in data set [1] is given as “+++ (25% < Ymin ≤ 50%)”.
The same measure, in the same setting: next, `CNC(=O)COc1cc2cc(Nc3nc(N4CCN(CC5CCN(c6cccc7c(C8CCC(=O)NC8=O)nn(C)c67)CC5)[C@@H](C)C4)ncc3Cl)ccc2n(C)c1=O` (stereo partly drawn) [Compound 308b, 2-((6-((5-chloro-2-((3S)-4-((1-(3-(2,6-dioxopiperidin-3-yl)-1-methyl-1H-indazol-7-yl)piperidin-4-yl)methyl)-3-methylpiperazin-1-yl)pyrimidin-4-yl)amino)-1-methyl-2-oxo-1,2-dihydroquinolin-3-yl)oxy)-N-methylacetamide]: “++++ (Ymin ≤ 25%)”; `CNC(=O)COc1cc2cc(Nc3nc(NC[C@H]4CC[C@H](CNc5ccc6c(C7CCC(=O)NC7=O)nn(C)c6c5)CC4)ncc3Cl)ccc2n(C)c1=O` (stereo partly shown) [Compound 293b, 2-((6-((5-chloro-2-((((1r,4r)-4-(((3-(2,6-dioxopiperidin-3-yl)-1-methyl-1H-indazol-6-yl)amino)methyl)cyclohexyl)methyl)amino)pyrimidin-4-yl)amino)-1-methyl-2-oxo-1,2-dihydroquinolin-3-yl)oxy)-N-methylacetamide]: “++ (50% < Ymin ≤ 70%)”.
Same read-out and setting: next, `CNC(=O)COc1cc2cc(Nc3nc(N4CCN(CC5CCC6(CC5)CN(c5ccc7c(C8CCC(=O)NC8=O)nn(C)c7c5)C6)CC4)ncc3Cl)ccc2n(C)c1=O` (stereo not shown) [Compound 103, 2-((6-((5-chloro-2-(4-((2-(3-(2,6-dioxopiperidin-3-yl)-1-methyl-1H-indazol-6-yl)-2-azaspiro[3.5]nonan-7-yl)methyl)piperazin-1-yl)pyrimidin-4-yl)amino)-1-methyl-2-oxo-1,2-dihydroquinolin-3-yl)oxy)-N-methylacetamide]: “++++ (Ymin ≤ 25%)”.
On the same count and under the same terms, next, `CNC(=O)COc1cc2cc(Nc3nc(N4CCC(CCCCOc5ccc6c(C7CCC(=O)NC7=O)nn(C)c6c5)CC4)ncc3Cl)ccc2n(C)c1=O` (stereo not shown) [Compound 319, 2-((6-((5-chloro-2-(4-(4-((3-(2,6-dioxopiperidin-3-yl)-1-methyl-1H-indazol-6-yl)oxy)butyl)piperidin-1-yl)pyrimidin-4-yl)amino)-1-methyl-2-oxo-1,2-dihydroquinolin-3-yl)oxy)-N-methylacetamide]: “++ (50% < Ymin ≤ 70%)”; `CNC(=O)COc1cc2cc(Nc3nc(NC[C@H]4CC[C@H](Nc5cccc(C6CCC(=O)NC6=O)c5)CC4)ncc3Cl)ccc2n(C)c1=O` (stereo partly shown) [Compound 262b, 2-((6-((5-chloro-2-((((1r,4r)-4-((3-(2,6-dioxopiperidin-3-yl)phenyl)amino)cyclohexyl)methyl)amino)pyrimidin-4-yl)amino)-1-methyl-2-oxo-1,2-dihydroquinolin-3-yl)oxy)-N-methylacetamide]: “++ (50% < Ymin ≤ 70%)”; `CNC(=O)COc1cc2cc(Nc3nc(N4CCN(CC5CCN(c6ccc7c(C8CCC(=O)NC8=O)nn(C)c7c6)CC5)[C@@H](C)C4)ncc3Cl)ccc2n(C)c1=O` (stereo partly drawn) [Compound 309b, 2-((6-((5-chloro-2-((3S)-4-((1-(3-(2,6-dioxopiperidin-3-yl)-1-methyl-1H-indazol-6-yl)piperidin-4-yl)methyl)-3-methylpiperazin-1-yl)pyrimidin-4-yl)amino)-1-methyl-2-oxo-1,2-dihydroquinolin-3-yl)oxy)-N-methylacetamide]: “+++ (25% < Ymin ≤ 50%)”.

The values above are taken from patent publication US20250270191A1, “QUINOLONE BCL6 BIFUNCTIONAL DEGRADERS” (Treeline Biosciences, Inc., priority 2022, published 2025).
